For eight compounds, IC50 results are on record in patent publication US5389616A, “Amino acid derivatives” (Hoffman-LaRoche Inc., priority 1988, dated 1995).

This experiment deals with T1, human renin (Homo sapiens, UniProt P00797).
T1 sequence (P00797 67-406): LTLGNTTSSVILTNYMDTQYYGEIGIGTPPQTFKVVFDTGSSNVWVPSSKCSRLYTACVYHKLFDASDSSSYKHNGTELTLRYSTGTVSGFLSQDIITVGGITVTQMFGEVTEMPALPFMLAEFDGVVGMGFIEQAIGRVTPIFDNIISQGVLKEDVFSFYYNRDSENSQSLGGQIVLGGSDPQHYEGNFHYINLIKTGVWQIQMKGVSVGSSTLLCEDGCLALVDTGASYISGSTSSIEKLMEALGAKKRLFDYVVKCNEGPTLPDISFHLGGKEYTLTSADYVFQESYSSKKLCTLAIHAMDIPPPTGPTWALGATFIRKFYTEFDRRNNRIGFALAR
Briefly: In vitro test with pure human renin. It counts as biochemical. The note with it: human tetradecapeptide renin substrate (hTD), pH 7.4, incubated 3 hours at 37° C. or 4° C., angiotensin I production measured via RIA. As to the method: In vitro test with pure human renin
The test is carried out in Eppendorf test tubes. The incubation mixture consists of (1) 100μl of human renin in buffer A (0.1M sodium phosphate solution, pH 7.4, containing 0.1% bovine serum albumin, 0.1% sodium azide and 1 mM ethylenediaminetetraacetic acid), sufficient for a renin activity of 2--3 ng of angiotensin I/ml/hr.; (2) 145 μl of buffer A; (3) 30 μl of 10 μM human tetradecapeptide renin substrate (hTD) in 10 mM hydrochloric acid; (4) 15 μl of dimethyl sulphoxide with or without inhibitor and (5) 10 μl of a 0.03 molar solution of hydroxyquinoline sulphate in water.
The samples are incubated for 3 hours at 37° C. or 4° C. in triplicate. 2 ×100 μl samples per experimental test tube are used in order to measure the production of angiotensin I via RIA (standard radioimmunoassay; clinical assay solid phase kit). Cross reactivities of the antibody used in the RIA are: angiotensin I 100%; angiotensin II 0.0013%; hTD (angiotensin I-Val-Ile-His-Ser-OH) 0.09%. The production of angiotensin I is determined by the difference between the experiment at 37° C. and that at 4° C.
The following controls are carried out:
(a) Incubation of hTD samples without renin and without inhibitor at 37° C. and 4° C. The difference between these two values gives the base value of angiotensin I production.
(b) Incubation of hTD samples with renin, but without inhibitor at 37° C. and 4° C. The difference between these values gives the maximal-value of angiotensin I production.
In each sample the base value of the angiotensin I production is subtracted from the angiotensin I production which is determined. The difference between the maximal value and the base value gives the value of the maximal substrate hydrolysis (=100%) by renin.
The results are given as IC50 values which denote that concentration of the inhibitor at which the enzymatic activity is inhibited by 50%. The IC50 values are determined from a linear regression curve from a logit-log plot.

For the compound `CC(C)(C)C(O)[C@H](O)[C@H](CC1CCCCC1)NC(=O)[C@H](Cc1c[nH]cn1)NC(=O)[C@H](Cc1ccccc1)CS(=O)(=O)C(C)(C)C` (mixture of isomers) [F, (S)-α-[(S)-α-[(t-butylsulphonyl)methyl]hydrocinnamamido]-N-[(1S,2R,3RS)-1-(cyclohexylmethyl)-2,3-dihydroxy-4,4-dimethylpentyl]imidazole-4-propionamide], 38 nM corresponded to half-maximal inhibition (IC50).

For the compound `CCC(CC)C(O)[C@H](O)[C@H](CC1CCCCC1)NC(=O)[C@H](Cc1c[nH]cn1)NC(=O)[C@@H](CC(=O)C(C)(C)C)Cc1ccccc1` (mixture of isomers) [A, (S)-N-[(1S,2R,3RS)-1-(Cyclohexylmethyl)-4-ethyl-2,3-dihydroxyhexyl]-α-[(R)-α-(3,3-dimethyl-2-oxobutyl)hydrocinnamamido]imidazole-4-propionamide], the IC50 (usually the concentration that gives 50% inhibition) was 24 nM. As to `CC(C)(C)S(=O)(=O)C[C@@H](Cc1ccccc1)C(=O)N[C@@H](Cc1c[nH]cn1)C(=O)N[C@@H](CC1CCCCC1)[C@@H](O)[C@@H](O)C1CCCCC1` [H, (S)-α-[(S)-α-[(t-butylsulphonyl)methyl]hydrocinnamamido]-N-[(1S,2R,3S)-3-cyclohexyl-1-(cyclohexylmethyl)-2,3-dihydroxypropyl]imidazole-4-propionamide], the IC50 turned out to be 2 nM.

Regarding `CC(C)[C@H](O)[C@H](O)[C@H](CC1CCCCC1)NC(=O)[C@H](Cc1c[nH]cn1)NC(=O)[C@H](Cc1ccccc1)CS(=O)(=O)C(C)(C)C` [G, (S)-α-[(S)-α-[(t-butylsulphonyl)methyl]hydrocinnamamido]-N-[(1S,2R,3S)-1-(cyclohexylmethyl)-2,3-dihydroxy-4-methylpentyl]imidazole-4-propionamide], half-maximal inhibition (IC50) was put at 2 nM.

Take `CC(C)(C)C(=O)C[C@@H](Cc1ccccc1)C(=O)N[C@@H](Cc1c[nH]cn1)C(=O)N[C@@H](CC1CCCCC1)[C@@H](O)[C@@H](O)C1CCCCC1` [B, (S)-N-[(1S,2R,3S)-3-cyclohexyl-1-(cyclohexylmethyl)-2,3-dihydroxypropyl]-α-[(R)-α-(3,3-dimethyl-2-oxobutyl)-hydrocinnamamido]imidazole-4-propionamide]: it took 1 nM to reach half-maximal inhibition (IC50). To `CC(C)[C@H](O)[C@H](O)[C@H](CC1CCCCC1)NC(=O)[C@H](Cc1c[nH]cn1)NC(=O)[C@@H](CC(=O)C(C)(C)C)Cc1ccccc1` [C, (S)-N-[(1S,2R,3S)-1-(cyclohexylmethyl)-2,3-dihydroxy-4-methylpentyl]-α-[(R)-α-(3,3-dimethyl-2-oxobutyl)hydrocinnamamido]imidazole-4-propionamide] belongs 3 nM; to `CC(C)(C)S(=O)(=O)C[C@@H](Cc1ccccc1)C(=O)N[C@@H](Cc1c[nH]cn1)C(=O)N[C@@H](CC1CCCCC1)[C@@H](O)[C@H](O)c1ccccc1` [E, (S)-α-[(S)-α-[(t-butylsulphonyl)methyl]hydrocinnamamido]-N-[(1S,2R,3R)-1-(cyclohexylmethyl)-2,3-dihydroxy-3-phenylpropyl]imidazole-4-propionamide], 170 nM; to `CC(C)(C)S(=O)(=O)C[C@@H](Cc1ccccc1)C(=O)N[C@@H](Cc1c[nH]cn1)C(=O)N[C@@H](CC1CCCCC1)[C@@H](O)[C@@H](O)c1ccccc1` [D, (S)-α-[(S)-α-[(t-butylsulphonyl)methyl]hydrocinnamamido]-N-[(1S,2R,3S)-1-(cyclohexylmethyl)-2,3-dihydroxy-3-phenylpropyl]imidazole-4-propionamide], 7 nM.
